From US20060034807A1, “Innervated artificial tissues and uses thereof” (Ottawa Health Research Institute, priority 2002, published 2006)

Experiments:
[1] = tested on: nerve bundles growing into the cornea; assay: Electrophysiological recording of evoked action potentials in TE corneas; format: cell-based, chick; settings: 50 mM lidocaine HCl; stimulation of ganglion cell cluster
Source text: Direct electrophysiological recording from the corneal epithelium was therefore conducted to confirm that nerve bundles growing into the cornea were able to conduct lidocaine-sensitive action potentials that were evoked by stimulation of the ganglion cell cluster (FIG. 3C, D). Tissue engineered corneas were transferred into an interface recording chamber, perfused with artificial saline containing (in mM): NaCl: 126, KCl: 3.0, MgSO4: 2.0, NaHCO3: 26, NaH2PO4 1.25, CaCl2: 2.0, dextrose: 10, oxygenated with 95% O2/5% CO2 at room temperature. Cathodal stimulation of ganglion cell clusters was done using silver wires pressed lightly against the surface and applying square wave stimulus pulses of 50 μs duration and typically 60-80 V in amplitude. Differential recordings of electrical responses from nerve fibre bundles were recorded with glass micropipettes (≈50 μm tips) filled with 150 mM NaCl. Because of the close proximity of the stimulation to the recording electrodes, a very large stimulus artefact was generated that obscured the very small action potentials (FIG. 3C, the action potential is indicted by the arrow).
To observe action potentials in isolation, evoked responses were recorded before and after addition of 50 mM lidocaine HCl. […]

HUVEC = assay: Effect of growth factors and retinyl acetate on angiogenesis in the sclera model; format: cell-based, Human
Experimental: The fibrinogen solution (3 mg/ml) was mixed with the thrombin solution (1.75 mg/ml) at a ratio of 1:0.03 v/v in wells of different sizes. Within a minute, enzymatic polymerization of fibrinogen gave fibrin gels under gentle agitation at 37° C. To incorporate endothelial cells in the fibrin matrix and to induce angiogenesis, endothelial cells were firstly seeded on the bottom of gelatin-coated wells at high density to provide a confluent monolayer at 48 hours. […] Fibrin gels were obtained again within a minute. Within 2 weeks of culture at 37° C. with 5% CO2, tube like vessels were generated within the matrix that associated together in order to form cord structures. These were visible by light microscopy and were counted in order to give an indication of vessel numbers. A combinatorial approach was utilized to evaluate what factors are required to achieve the optimal number of blood vessels within this sclera model. The pseudo sclera was generated as per Section 3.1.3. […] The effectiveness of the growth factors in positively affecting angiogenesis was evaluated by counting the number of tubes identified in a dish by brightfield microscopy. […] The effect of RA on angiogenesis was evaluated in the system described above. […] Blood vessel formation was evaluated by counting the number of vessels within a treated dish. […]

neutrophils = assay: Zymographic detection of metalloproteases; format: cell-based; settings: neutrophils added on top of collagen matrix
Experimental: Metalloproteinases MMPs) are a family of closely related zinc-containing enzymes whose principal function is thought to be an integral part of generalized tissue remodeling as well as the formation of new blood vessels. Zymography has the advantage that in addition to detecting enzyme activity it can be used to provide information about the molecular weight of an enzyme and so help identify the enzyme. To achieve this dissolved gelatin is incorporated into a polyacrylamide gel, samples are added to the gel, separated by electrophoresis and the gel allowed to incubate for a while to allow the enzymes to degrade the gelatin. When the gels are stained for proteins clear lysis bands are apparent where the metalloproteinases have degraded the gelatin.

[2] = tested on: innervated TE cornea constructs; assay: Substance P release from innervated TE corneas (EIA); format: cell-based, chick; settings: for SP release versus controls: 1% capsaicin or 50 μM veratridine, P<0.05
Experimental: To elicit a functional response such as SP release, innervated TE cornea constructs were treated with capsaicin or veratridine. Briefly, innervated tissue engineered corneas were treated with a total of 1.5 ml of SHEM containing 8.5% Tween 80 and 1.5% ethanol either alone (control) or with 1) 1% (w/v) capsaicin, or 2) 50 μM veratridine. At 0, 1, 3, 6, 12 and 24 hours post-treatment, culture supernatants were collected, flash frozen in liquid nitrogen and stored at −80° C. Substance P content of the medium was measured using a substance P specific competitive peptide enzyme immunoassay (EIA) kit (Peninsula Laboratories). […] All groups, n 3. *P<0.001 versus control (2-way ANOVA).

## CCN(CC)CC(=O)Nc1c(C)cccc1C [lidocaine]
[1]
  sensitivity of evoked action potentials: lidocaine-sensitive

## CC(=O)OC/C=C(C)/C=C/C=C(C)/C=C/C1=C(C)CCCC1(C)C [RA, Retinyl acetate]
HUVEC; high levels of RA
  number of blood vessels: decreased
HUVEC; various concentrations of RA
  Blood vessel formation (number of vessels): increases in a dose dependent fashion and is optimal at an intermediate range

## formyl-Met-Leu-Phe [FMLP]
neutrophils
  stimulation of neutrophils (MMP-2 and MMP-9 detected): able to stimulate them

## COc1cc(CNC(=O)CCCC/C=C/C(C)C)ccc1O [capsaicin]
[2]; 1% (w/v) capsaicin, 1, 3, 6, 12 and 24 hours, P<0.001
  release of SP versus controls: significantly greater
[2]; 6 hours post-treatment
  SP release versus controls: significant increase
[2]; 24 hours post-treatment
  SP release versus controls: significant increase
